Measurements: patent US6472348B1, “Pyridone derivatives and herbicides” (Kumiai Chemical Industry Co., Ltd., priority 1996, dated 2002)

Tests used:
Assay type in all cases: in vivo
[1] = tested on: bulrush (Sc); assay: Test Example 1: herbicidal effects by paddy field soil treatment; conditions: 100 g of the active ingredient per 10 ares, 21st day after the application, index 0-5 of Table 47;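 further: grade of growth control; 5 = at least 90%; 4 = 70 to 90%; 3 = 50 to 70%; 2 = 30 to 50%; 1 = 10 to 30%; 0 = under 10%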
Protocol: (§1) (Test on Herbicidal Effects by Paddy Field Soil Treatment)
(§2) In a plastic pot (surface area: 100 cm^2) filled with paddy field soil, barnyardgrass (Ec), monochoria (Mo) and bulrush (Sc) were sown after puddling and leveling, and flooded to a water depth of 3 cm. […] The dose was 100 g of the active ingredient per 10 ares. The plants were then cultured in a green house, and the evaluation of the herbicidal effects was conducted on the 21st day after the application in accordance with the standards as identified in Table 47.

[2] = tested on: barnyardgrass (Ec); assay: as above; conditions: 100 g of the active ingredient per 10 ares, 21st day after the application, index 0-5 of Table 47
Protocol: as §1, §2

[3] = tested on: monochoria (Mo); assay: as above; conditions: 100 g of the active ingredient per 10 ares, 21st day after the application, index 0-5 of Table 47;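 further: grade of growth control; 5 = at least 90%; 4 = 70 to 90%; 3 = 50 to 70%; 2 = 30 to 50%; 1 = 10 to 30%; 0 = under 10%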
Protocol: as §1, §2

[4] = tested on: pale smartweed (Po); assay: Test Example 3: herbicidal effects by upland field foliage treatment; set-up: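 grade of growth control; 5 = at least 90%; 4 = 70 to 90%; 3 = 50 to 70%; 2 = 30 to 50%; 1 = 10 to 30%; 0 = under 10%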
Protocol: (§3) (Test on Herbicidal Effects by Upland Field Foliage Treatment)
(§4) In a plastic pot (surface area: 120 cm^2) filled with sand, barnyardgrass (Ec), Diaitaria ciliaris (Di), pale smartweed (Po), slender amaranth (Am), common lambsquarters (Ch) and rice flatsedge (Ci) were sown and covered with soil and were cultured in a green house for 2 weeks. […] The plants were then cultured in the green house, and the evaluation of the herbicidal effects was conducted on the 14th day after the treatment in accordance with the standards as identified in Table 47. Symbol—represents “not tested”.

[5] = tested on: rice flatsedge (Ci); assay: as above; set-up: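 grade of growth control; 5 = at least 90%; 4 = 70 to 90%; 3 = 50 to 70%; 2 = 30 to 50%; 1 = 10 to 30%; 0 = under 10%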
Protocol: as §3, §4

[6] = tested on: barnyardgrass (Ec); assay: as above; set-up: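 grade of growth control; 5 = at least 90%; 4 = 70 to 90%; 3 = 50 to 70%; 2 = 30 to 50%; 1 = 10 to 30%; 0 = under 10%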
Protocol: as §3, §4

[7] = tested on: slender amaranth (Am); assay: as above; set-up: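 grade of growth control; 5 = at least 90%; 4 = 70 to 90%; 3 = 50 to 70%; 2 = 30 to 50%; 1 = 10 to 30%; 0 = under 10%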
Protocol: as §3, §4

[8] = tested on: Diaitaria ciliaris (Di); assay: as above; set-up: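 grade of growth control; 5 = at least 90%; 4 = 70 to 90%; 3 = 50 to 70%; 2 = 30 to 50%; 1 = 10 to 30%; 0 = under 10%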
Protocol: as §3, §4

[9] = tested on: common lambsquarters (Ch); assay: as above; set-up: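 grade of growth control; 5 = at least 90%; 4 = 70 to 90%; 3 = 50 to 70%; 2 = 30 to 50%; 1 = 10 to 30%; 0 = under 10%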
Protocol: as §3, §4

[10] = 100 g of the active ingredient per 10 ares, evaluated on the 14th day after treatment
[11] = 100 g active ingredient per 10 ares, evaluated 14th day after treatment

| Compound | Herbicidal effects Sc [1] | Herbicidal effects Ec [2] | Herbicidal effects Mo [3] | Herbicidal effects Po [4, 10] | Herbicidal effects Ci [5, 10] | Herbicidal effects Ec [6, 10] | Herbicidal effects Am [7, 10] | Herbicidal effects Di [8, 10] | Herbicidal effects Ch [9, 10] | Herbicidal effects Po [4, 11] | Herbicidal effects Ci [5, 11] | Herbicidal effects Ec [6, 11] | Herbicidal effects Am [7, 11] | Herbicidal effects Di [8, 11] | Herbicidal effects Ch [9, 11] |
| --- | --- | --- | --- | --- | --- | --- | --- | --- | --- | --- | --- | --- | --- | --- | --- |
| Cn1c(C(F)(F)F)ccc(-c2cc(SCC(=O)O)c(Cl)cc2Cl)c1=O [1-127] | 5 | 5 | 5 | 5 | 5 | 4 | 5 | 5 | 5 |  |  |  |  |  |  |
| Cn1c(C(F)(F)F)ccc(-c2cc(NS(C)(=O)=O)c(Cl)cc2Cl)c1=O [1-75] | 5 | 5 | 5 |  |  |  |  |  |  |  |  |  |  |  |  |
| CCOC(=O)C(C)Sc1cc(-c2ccc(C(F)(F)F)n(C)c2=O)c(Cl)cc1Cl (racemic) [1-124] | 5 | 5 | 5 | 5 | 5 | 5 | 5 | 5 | 5 |  |  |  |  |  |  |
| Cn1c(C(F)(F)F)ccc(-c2cc(OC3CCCO3)c(Cl)cc2Cl)c1=O (stereo not drawn) [Compound 1-212] | 4 | 5 | 5 |  |  |  |  |  |  |  |  |  |  |  |  |
| COCCOC(=O)CSc1cc(-c2ccc(C(F)(F)F)n(C)c2=O)c(F)cc1Cl [1-49] | 5 | 5 | 5 | 5 | 5 | 5 | 5 | 5 | 5 |  |  |  |  |  |  |
| Cn1c(C(F)(F)F)ccc(-c2cc(OC3CCCC3)c(Cl)cc2Cl)c1=O [1-40] | 5 | 5 | 5 |  |  |  |  |  |  |  |  |  |  |  |  |
| CCCOC(=O)CSc1cc(-c2ccc(C(F)(F)F)n(C)c2=O)c(Cl)cc1Cl [1-130] | 5 | 5 | 5 |  |  |  |  |  |  |  |  |  |  |  |  |
| Cn1c(C(F)(F)F)ccc(-c2cc(OCc3ccccc3)c(Cl)cc2F)c1=O [1-23] | 5 | 5 | 5 |  |  |  |  |  |  |  |  |  |  |  |  |
| COC(=O)Oc1cc(-c2ccc(C(F)(F)F)n(C)c2=O)c(F)cc1Cl [1-153] | 5 | 5 | 5 |  |  |  |  |  |  |  |  |  |  |  |  |
| Cn1c(C(F)(F)F)ccc(-c2cc3c(cc2F)OCC(=O)N3CC2CO2)c1=O (stereo not drawn) [Compound 2-20] | 5 | 5 | 5 |  |  |  |  |  |  |  |  |  |  |  |  |
| Cn1cc(-c2ccc(Cl)cc2)c(=O)cc1C(F)(F)F [Compound 6-1] | 5 | 5 | 5 |  |  |  |  |  |  |  |  |  |  |  |  |
| CCOC(=O)CSc1cc(-c2ccc(C(F)(F)F)n(C)c2=O)c(Cl)cc1Cl [1-53] | 5 | 5 | 5 |  |  |  |  |  |  |  |  |  |  |  |  |
| CCOC(=O)COc1cc(-c2ccc(C(F)(F)F)n(C)c2=O)c(Cl)cc1Cl [1-33] | 5 | 5 | 5 | 4 | 5 | 5 | 5 | 4 | 5 |  |  |  |  |  |  |
| Cn1c(C(F)(F)F)ccc(-c2cc(OC3CCCO3)c(Cl)cc2F)c1=O (stereo not drawn) [Compound 1-183] | 5 | 5 | 5 | 5 | 5 | 4 | 5 | 5 | 5 |  |  |  |  |  |  |
| CC(C)=NOC(=O)c1cc(-c2ccc(C(F)(F)F)n(C)c2=O)c(F)cc1Cl [1-68] | 5 | 5 | 5 | 5 | 5 | 5 | 5 | 5 | 5 |  |  |  |  |  |  |
| C=CC(=O)c1cc(-c2ccc(C(F)(F)F)n(C)c2=O)c(F)cc1Cl [Compound 1-198] | 5 | 5 | 5 |  |  |  |  |  |  | 5 | 5 | 5 | 5 | 5 | 5 |
| CCOC(=O)COc1cc(-c2ccc(C(F)(F)F)n(C)c2=O)c(F)cc1Cl [Compound No. 1-19] | 5 | 5 | 5 | 5 | 5 | 5 | 5 | 5 | 5 |  |  |  |  |  |  |
| Cn1c(C(F)(F)F)ccc(-c2cc(O)c(Cl)cc2F)c1=O [Compound No. 1-13] | 5 | 5 | 5 | 5 | 5 | 5 | 5 | 5 | 5 |  |  |  |  |  |  |
| COC(=O)CSc1cc(-c2ccc(C(F)(F)F)n(C)c2=O)c(F)cc1Cl [1-46] | 5 | 5 | 5 | 5 | 5 | 5 | 5 | 5 | 5 |  |  |  |  |  |  |

| Compound | Herbicidal effects Sc [1] | Herbicidal effects Ec [2] | Herbicidal effects Mo [3] | Herbicidal effects Po [4, 10] | Herbicidal effects Ci [5, 10] | Herbicidal effects Ec [6, 10] | Herbicidal effects Am [7, 10] | Herbicidal effects Di [8, 10] | Herbicidal effects Ch [9, 10] | Herbicidal effects Po [4, 11] | Herbicidal effects Ci [5, 11] | Herbicidal effects Ec [6, 11] | Herbicidal effects Am [7, 11] | Herbicidal effects Di [8, 11] | Herbicidal effects Ch [9, 11] |
| --- | --- | --- | --- | --- | --- | --- | --- | --- | --- | --- | --- | --- | --- | --- | --- |
| Cn1c(C(F)(F)F)ccc(-c2cc(SCC(=O)OC3CCCC3)c(Cl)cc2F)c1=O [1-47] | 5 | 5 | 5 |  |  |  |  |  |  |  |  |  |  |  |  |
| Cn1c(C(F)(F)F)ccc(-c2cc(SC3CCCC3)c(Cl)cc2Cl)c1=O [1-128] | 4 | 5 | 5 |  |  |  |  |  |  |  |  |  |  |  |  |
| Cn1c(C(F)(F)F)ccc(-c2ccc3c(c2)NC(=O)CO3)c1=O [2-30] | 5 | 5 | 5 |  |  |  |  |  |  |  |  |  |  |  |  |
| CCOC(=O)CSc1cc(-c2ccc(C(F)(F)F)n(C)c2=O)c(F)cc1Cl [1-45] | 5 | 5 | 5 | 5 | 5 | 5 | 5 | 5 | 5 |  |  |  |  |  |  |
| Cn1c(C(F)(F)F)ccc(-c2cc(Oc3ccccc3)c(Cl)cc2Cl)c1=O [1-36] | 5 | 5 | 5 |  |  |  |  |  |  |  |  |  |  |  |  |
| CCOC(=O)COC(=O)c1cc(-c2ccc(C(F)(F)F)n(C)c2=O)c(F)cc1Cl [1-142] | 5 | 5 | 5 | 5 | 5 | 5 | 5 | 5 | 5 |  |  |  |  |  |  |
| Cc1cc(-c2ccc(Cl)cc2Cl)c(=O)[nH]c1C(F)(F)F [1-97] | 5 | 5 | 5 |  |  |  |  |  |  |  |  |  |  |  |  |
| CCOC(=O)C(Cl)Cc1cc(-c2ccc(C(F)(F)F)n(C)c2=O)c(F)cc1Cl (stereo not drawn) [Compound No. 1-139, ethyl 2-chloro-3-[2-chloro-4-fluoro-5-(1methyl-6-trifluoromethyl-2(1H)pyridon-3-yl)]phenyl propionate] |  |  |  | 5 | 5 | 5 | 5 | 5 | 5 |  |  |  |  |  |  |
| Cn1c(C(F)(F)F)ccc(-c2ccc(Cl)c(SCC(=O)OC3CCCC3)c2)c1=O [1-115] | 5 | 5 | 5 |  |  |  |  |  |  |  |  |  |  |  |  |
| CCCCCOC(=O)CSc1cc(-c2ccc(C(F)(F)F)n(C)c2=O)c(Cl)cc1Cl [1-123] | 5 | 5 | 5 | 5 | 5 | 4 | 5 | 5 | 5 |  |  |  |  |  |  |
| COC(=O)C(Cl)Cc1cc(-c2ccc(C(F)(F)F)n(C)c2=O)c(F)cc1Cl (stereo not drawn) [1-70] | 5 | 5 | 5 | 5 | 5 | 5 | 5 | 5 | 5 |  |  |  |  |  |  |
| CCCC(Sc1cc(-c2ccc(C(F)(F)F)n(C)c2=O)ccc1Cl)C(=O)OCC (racemic) [1-116] |  |  |  | 5 | 5 | 4 | 5 | 4 | 5 |  |  |  |  |  |  |
| CC(C)OCCOC(=O)CSc1cc(-c2ccc(C(F)(F)F)n(C)c2=O)c(Cl)cc1Cl [1-129] |  |  |  | 5 | 5 | 5 | 5 | 5 | 5 |  |  |  |  |  |  |
| CCOC(=O)CNc1cc(-c2ccc(C(F)(F)F)n(C)c2=O)c(F)cc1Cl [1-63] |  |  |  | 5 | 5 | 5 | 5 | 5 | 5 |  |  |  |  |  |  |
| Cn1c(C(F)(F)F)ccc(-c2cc(C(=O)NS(C)(=O)=O)c(Cl)cc2F)c1=O [1-147] | 5 | 5 | 5 |  |  |  |  |  |  |  |  |  |  |  |  |
| COC(=O)CSc1cc(-c2ccc(C(F)(F)F)n(C)c2=O)c(Cl)cc1Cl [1-54] | 5 | 5 | 5 | 4 | 5 | 5 | 5 | 5 | 5 |  |  |  |  |  |  |
| CCOC(=O)COc1cc(-c2ccc(C(F)(F)F)n(C)c2=O)ccc1Cl [1-107] | 5 | 5 | 5 |  |  |  |  |  |  |  |  |  |  |  |  |
| Cn1c(C(F)(F)F)ccc(-c2cc(C(N)=O)c(Cl)cc2F)c1=O [1-145] | 5 | 5 | 5 | 5 | 5 | 5 | 5 | 5 | 5 |  |  |  |  |  |  |
